Source: ChEMBL document CHEMBL1122656, “Synthesis and antiviral evaluation of carbocyclic analogues of ribofuranosides of 2-amino-6-substituted-purines and of 2-amino-6-substituted-8-azapurines” (1984)
≈ marks a conversion by molar mass, not a printed value.

Key:
Assay type in all cases: functional
[1] = Cytotoxicity to cancer cells (KB cells) in culture was determined and the effective dose that causes 50 % cytotoxicity was reported.; conditions: Homo sapiens, Cancer cell lines; read-out: ED50 (the source's name)
[2] = system: Mus musculus; assay: In vivo efficacy against L1210 leukemic cells, inoculated intraperitoneally in mice at schedule - q.d. 1-9. Dose 19 mg/kg*-toxic; conditions: route intraperitoneal
[3] = system: Mus musculus; assay: In vivo efficacy against L1210 leukemic cells, inoculated intraperitoneally in mice at schedule - q.d. 1,5,9. Dose 75 mg/kg*-Diiference in weight change(T-C)by day 5 was -5.6g at 150 mg/kg &[…] at 75 mg/kg
[4] = system: HEp-2; assay: In vitro inhibition of cytopathogenicity induced by HF strain of Herpes Simplex Virus (HSV-1) replicating in human epidermoid carcinoma no.2 (H.Ep-2) cells
[5] = system: Mus musculus; assay: In vivo efficacy against L1210 leukemic cells, inoculated intraperitoneally in mice at schedule - q.d. 1,5,9. Dose 19 mg/kg; conditions: route intraperitoneal
[6] = system: Mus musculus; assay: In vivo efficacy against L1210 leukemic cells, inoculated intraperitoneally in mice at schedule - q.d. 1. Dose 75 mg/kg*-Diiference in weight change(T-C)by day 5 was -5.6g at 150 mg/kg &[…] at 75 mg/kg
[7] = system: Mus musculus; assay: In vivo efficacy against L1210 leukemic cells, inoculated intraperitoneally in mice at schedule - q.d. 1,5,9. Dose 38 mg/kg; conditions: route intraperitoneal
[8] = system: Mus musculus; assay: In vivo efficacy against L1210 leukemic cells, inoculated intraperitoneally in mice at schedule - q.d. 1-9. Dose 9 mg/kg; conditions: route intraperitoneal
[9] = system: Mus musculus; assay: In vivo efficacy against L1210 leukemic cells, inoculated intraperitoneally in mice at schedule - q.d. 1 Dose 150 mg/kg.*-Diiference in weight change(T-C)by day 5 was -5.6g at 150 mg/kg &[…] at 75 mg/kg
[10] = system: Mus musculus; assay: In vivo efficacy against L1210 leukemic cells, inoculated intraperitoneally in mice at schedule - q.d. 1-9. Dose 38 mg/kg*-toxic; conditions: route intraperitoneal
[11] = system: HEp-2; assay: In vitro inhibition of cytopathogenicity induced by Lederle Chorioallantoic strain of vaccinia virus replicating in human epidermoid carcinoma
[12] = system: Mus musculus; assay: In vivo efficacy against L1210 leukemic cells, inoculated intraperitoneally in mice at schedule - q.d. 1-9. Dose 100 mg/kg; conditions: route intraperitoneal
[13] = system: Mus musculus; assay: In vivo efficacy against L1210 leukemic cells, inoculated intraperitoneally in mice at schedule - q.d. 1-9. Dose 400 mg/kg.; conditions: route intraperitoneal
[14] = system: Mus musculus; assay: In vivo efficacy against L1210 leukemic cells, inoculated intraperitoneally in mice at schedule - day 1. Dose 400 mg/kg; conditions: route intraperitoneal
[15] = system: Mus musculus; assay: In vivo efficacy against L1210 leukemic cells, inoculated intraperitoneally in mice at schedule - q.d. 1-9. Dose 50 mg/kg; conditions: route intraperitoneal
[16] = system: Mus musculus; assay: In vivo efficacy against L1210 leukemic cells, inoculated intraperitoneally in mice at schedule - q.d. 1-9. Dose 200 mg/kg.*-toxic; conditions: route intraperitoneal
[17] = system: Mus musculus; assay: In vivo efficacy against L1210 leukemic cells, inoculated intraperitoneally in mice at schedule - q.d. 1-9. Dose 100 mg/kg*-toxic; conditions: route intraperitoneal
[18] = system: Mus musculus; assay: In vivo efficacy against L1210 leukemic cells, inoculated intraperitoneally in mice at schedule - q.d. 1-9. Dose 25 mg/kg; conditions: route intraperitoneal
[19] = system: HEp-2; assay: In vitro inhibition of cytopathogenicity induced by Lederle Chorioallantoic strain of vaccinia virus replicating in human epidermoid carcinoma no.2 (H.Ep-2) cells

Nc1nc(O)c2ncn(C3CC(CO)C(O)C3O)c2n1 (stereo not given)
EC50 [1]: > 100 µg/mL
T/C [2]: 83%
T/C [3]: 70%
Virus rating [4]: 0 VR
T/C [5]: 94%
T/C [6]: 88%
T/C [7]: 92%
T/C [8]: 101%
T/C [9]: 75%
T/C [10]: 71%
Virus rating [11]: 0 VR

CSc1nc(N)nc2c1nnn2C1CC(CO)C(O)C1O (stereo not given)
EC50 [1]: > 100 µg/mL
Virus rating [4]: 0 VR
T/C [12]: 94%

Nc1nc(S)c2ncn(C3CC(CO)C(O)C3O)c2n1 (stereo not given)
EC50 [1]: 50 µg/mL (≈ 168 µM)
Virus rating [4]: 0 VR
T/C [13]: 99%

CNc1nc(N)nc2c1ncn2C1CC(CO)C(O)C1O (stereo not given)
EC50 [1]: 18 µg/mL (≈ 61.2 µM)
MIC [4]: 320 µg/mL (≈ 1090 µM)
Virus rating [4]: 1.3 VR

Nc1nc(Cl)c2nnn(C3CC(CO)C(O)C3O)c2n1 (stereo not given)
EC50 [1]: 8 µg/mL (≈ 26.6 µM)
T/C [14]: 111%
MIC [4]: 81 µg/mL (≈ 269 µM)
Virus rating [4]: 0.9 VR
Virus rating [11]: 0.6 VR

Nc1nc(N)c2nnn(C3CC(CO)C(O)C3O)c2n1 (stereo not given)
EC50 [1]: > 100 µg/mL
T/C [14]: 97%
MIC [4]: 100 µg/mL (≈ 356 µM)
Virus rating [4]: 1.4 VR

Nc1nc(O)c2nnn(C3CC(CO)C(O)C3O)c2n1 (stereo not given)
EC50 [1]: > 100 µg/mL
T/C [14]: 109%
Virus rating [4]: 0 VR

Nc1nc(N)c2ncn(C3CC(CO)C(O)C3O)c2n1 (stereo not given)
EC50 [1]: 19 µg/mL (≈ 67.8 µM)
T/C [15]: 89%
T/C [16]: 67%
T/C [17]: 70%
T/C [18]: 102%
MIC [4]: 0.3 µg/mL (≈ 1.07 µM)
Virus rating [4]: 4.6 VR
MIC [11]: 2.3 µg/mL (≈ 8.21 µM)
Virus rating [11]: 3.8 VR

Nc1ncnc2c1ncn2[C@@H]1O[C@H](CO)[C@@H](O)[C@@H]1O [VIDARABINE]
MIC [4]: 10 µg/mL (≈ 37.4 µM)
Virus rating [4]: 2.2 VR

Nc1nc(Cl)c2ncn(C3CC(CO)C(O)C3O)c2n1 (stereo not given)
EC50 [1]: > 100 µg/mL
T/C [15]: 101%
T/C [16]: 67%
T/C [14]: 104%
T/C [17]: 85%
MIC [4]: 10 µg/mL (≈ 33.4 µM)
Virus rating [4]: 1.7 VR
MIC [19]: 20 µg/mL (≈ 66.7 µM)
Virus rating [19]: 1.2 VR

CSc1nc(N)nc2c1ncn2C1CC(CO)C(O)C1O (stereo not given)
EC50 [1]: > 100 µg/mL
Virus rating [4]: 0.1 VR
T/C [12]: 108%
